The values that follow are results of earlier work, collected in paper PMC7489895 (Biochemical Journal, 2020).

For data set [1], the system named is human skeletal muscle. The following applies: ref Ahn et al. [30].
Data set [2] relates to MondoA. The following applies: skeletal myoblasts, in response to insulin; ref Ahn et al. [30].
In data set [3] the target is importin α (Mus musculus, UniProt P52293). The following applies: read-out: KD, NLS - importin α.

For the molecule `COc1ccc(-c2csc(NC(=O)c3ccc(OCC(=O)N4CCOCC4)c(OC)c3)n2)cc1` [SBI-477], in data set [1], the “effect on intramuscular lipid accumulation” value is listed as “inhibits intramuscular lipid accumulation”. For the same molecule, in data set [2], the “effect on nuclear localization of MondoA” value is “inhibits the nuclear localization of Mondo A”.

Turning to “K^155RPAATKKAGQAKKKK^170 (KRPAATKKAGQAKKKK; NLS; UniProt P05221 155-170, looked up, fragment) [Nucleoplasmin]”, in data set [3], the Kd was 190 ± 20 nM.

As to P^126KKKRKV^132 [SV40], in data set [3], the Kd was 310 ± 150 nM.

Turning to R^617KCYEAGMTLGARKLKKL^634, in data set [3], the dissociation constant Kd was 5000 ± 100 nM.
